Reference: US6011000A, “Compositions for the treatment of blood disorders” (priority 1995, dated 2000)

Tests used:
[1] = tested on: fetal globin synthesis in erythroid progenitors; conditions: cited from earlier work
anemic baboon = assay: In vivo reticulocyte proliferation, globin expression and blood counts in anemic (phlebotomized) baboons; conditions: for Fetal reticulocytes: baseline 4%
Description: Experiments were performed to determine if administration of the chemical compositions could induce fetal globin gene expression in an in vivo model similar to humans (S. P. Perrine et al., Brit. J. Haematol. 88:555-61, 1994). Briefly, chemicals were prepared as sterile pharmaceutical solutions in pH adjusted sterile water. A variety of chemical compositions were administered sequentially to some baboons. After administration of one compound, a wash-out period with no compound administration was maintained until reticulocytes returned to base line prior to administration of the next compound. This was done, at least partly, to compare the magnitude of response which occurred within the same individual animal to different compounds.
Briefly, juvenile female baboons (2 years old) were catheterized with arterial and venous catheters and phlebotomized gradually every day to maintain a moderate anemia of 7.0 to 7.5 grams hemoglobin/dl. Fetal reticulocytes, the newly produced red blood cells containing fetal globin, were assayed using a monoclonal antibody against fetal globin (HbF) as described by G. Dover et al. (Blood 67:735-38, 1986). Briefly, blood was stained with two antibodies, one specific for reticulocytes and another against fetal globin protein. The amount of antibody bound cells was determined by FACS analysis. Globin chain synthesis was assayed as described by J. B. Clegg et al. (J. Mol. Biol. 19:91-108, 1966). Briefly, reticulocytes were radio-labeled with ^3 H-leucine which was incorporated in equal proportions into actively synthesized globin chains. After incubation in leucine-free media, cells were washed, and globin proteins were separated and purified by column chromatography. Radioactivity incorporated into each peak is compared and the ratios of gamma to gamma plus beta globin calculated. Each animal served as its own control with baseline monitoring assays performed for 4-6 weeks before any drug was administered. Phlebotomy was continued daily, so that peripheral HbF levels in the animals were not considered to be accurate over the short treatment time-frames and were not monitored. Safety monitoring was performed by frequent physical examinations, quantitation of food eaten, activity and frequent chemistry and hematology monitoring. Complete blood counts were assayed before, during and after treatment. Results presented were not adjusted to account for the daily phlebotomy.

[2] = tested on: gamma globin (erythroblasts of sickle cell anemia patients); assay: Induction of fetal globin in erythroblasts by steel factor; format: cell-based, human; conditions: 100 ng/ml
Description: Peripheral blood was obtained from patients with sickle cell anemia. Mononuclear cells were isolated on Ficoll-Hypaque gradients. One culture was treated with 100 ng/ml steel factor for 13 days and compared with an untreated control. […] A second culture was incubated overnight with an identical dose of steel factor plus ^3 H-leucine. Amounts of labeled globin proteins synthesized in untreated (FIG. 5A) and steel factor treated (FIG. 5B) cells were determined by autoradiography and quantitated (scanned) by laser densitometry.

fetal globin = conditions: pharmacological doses, phenylhydrazine-anemic chickens; cited from earlier work
Friend leukemia cells = conditions: cited from earlier work
histone acetylation = conditions: cited from earlier work
[3] = tested on: fetal globin expression in K562 human erythroleukemia cells; conditions: cited from earlier work
[4] = tested on: human fetal (γ) globin gene; conditions: cited from earlier work
[5] = 25 and 100 μg/kg s.c., undetectable before treatment

| Compound | fetal globin synthesis [1] | Fetal reticulocytes (anemic baboon; 25 μg/kg s.c. daily, 4 days (FIG. 10)) | Fetal reticulocytes (anemic baboon; 100 μg/kg s.c., four days, after wash-out) | rise in numbers of newly-formed blood cells producing fetal globin (anemic baboon; 25 and 100 μg/kg s.c.) | total increase of gamma globin expression in the bone marrow (anemic baboon; 25 and 100 μg/kg s.c.) | fetal globin chain protein (anemic baboon; [5]) | rise in fetal globin chain protein (anemic baboon; [5]) | mean increase in gamma globin expression ([2]; 13 days, vs untreated control) | gamma globin expression in BFU-e cells ([2]; 13 days, from 14%) | globin proteins included in the increase ([2]; overnight) | Gamma globin expression ([2]; overnight + 3H-leucine, untreated 17.6%) | expression of fetal globin (fetal globin) | hemoglobin synthesis (Friend leukemia cells) | level of histone acetylation (histone acetylation) | increase of fetal globin expression [3] | transcription of the human fetal (γ) globin gene [4] |
| --- | --- | --- | --- | --- | --- | --- | --- | --- | --- | --- | --- | --- | --- | --- | --- | --- |
| steel factor: hematopoietic factor, steel factor, also referred to as kit ligand, mast cell growth factor and stem cell factor | capable of influencing fetal globin synthesis in erythroid progenitors | 15% | 12% | 300-500% | 9 fold | about 3 % of total non-alpha globin | 3 fold | 16.1% | 23.3% | included both G-γ and A-γ globin proteins | 43.3% | – | – | – | – | – |
| CCCC(=O)O [butyric acid] | – | – | – | – | – | – | – | – | – | – | – | greatly increased expression of fetal globin | induced hemoglobin synthesis | may act by increasing the level of histone acetylation | much less of an effect | accurately and specifically stimulated transcription of the human fetal (γ) globin gene |
